Changes are numbered by the printed parent chain.
Tests used:
[1] = plasma protein binding, dog; format: in vitro ADME; details: in vitro
[2] = Phase 1 Part 1 (SAD) urinary PK; format: in vivo, human; details: for CLR,0-6 / CLR,6-12 / CLR,12-24 / Cum % excreted0-72 / CumAe0-72 / CLR,24-48: Part 1 SAD, geometric mean (CV%); for CumAe0-72: urine 0 to 72 hours
Protocol: (§1) Four sequential SAD cohorts were dosed.
Urine samples were collected according to the schedule in Tables 4 and 5 for Parts 1 and 2, respectively. The pre-dose sample on Day 1 was collected any time in the 2 hours prior to dosing. A 30-minute window was allowed around collection intervals.

HO bone formation = assay: mouse model of HO bone formation; format: in vivo; details: dosing for 21 days
[3] = plasma protein binding, monkey; format: in vitro ADME; details: in vitro
wtALK2 = molecular target: T1, wtALK2 (Homo sapiens, UniProt Q04771); assay: wtALK2 functional assays; format: biochemical; details: several functional assays; read-out: wtALK2 activity potency (IC50)
T1 sequence (Q04771 21-509): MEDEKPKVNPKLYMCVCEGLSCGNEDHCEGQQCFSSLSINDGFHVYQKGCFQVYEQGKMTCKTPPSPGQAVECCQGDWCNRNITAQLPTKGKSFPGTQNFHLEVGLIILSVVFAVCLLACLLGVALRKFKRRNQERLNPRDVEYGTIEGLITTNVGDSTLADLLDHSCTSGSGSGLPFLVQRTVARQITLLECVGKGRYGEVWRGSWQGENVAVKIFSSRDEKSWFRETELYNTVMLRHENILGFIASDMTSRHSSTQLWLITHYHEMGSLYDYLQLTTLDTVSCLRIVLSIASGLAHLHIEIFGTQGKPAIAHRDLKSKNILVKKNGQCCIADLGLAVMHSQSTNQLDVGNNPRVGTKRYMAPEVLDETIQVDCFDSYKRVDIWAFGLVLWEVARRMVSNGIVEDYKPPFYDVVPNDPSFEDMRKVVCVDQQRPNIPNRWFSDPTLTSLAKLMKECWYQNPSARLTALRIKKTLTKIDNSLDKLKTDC

CYP2C8 = molecular target: T2, CYP2C8 (Homo sapiens, UniProt P10632); assay: CYP inhibition in vitro; format: in vitro ADME
T2 sequence (P10632 1-490): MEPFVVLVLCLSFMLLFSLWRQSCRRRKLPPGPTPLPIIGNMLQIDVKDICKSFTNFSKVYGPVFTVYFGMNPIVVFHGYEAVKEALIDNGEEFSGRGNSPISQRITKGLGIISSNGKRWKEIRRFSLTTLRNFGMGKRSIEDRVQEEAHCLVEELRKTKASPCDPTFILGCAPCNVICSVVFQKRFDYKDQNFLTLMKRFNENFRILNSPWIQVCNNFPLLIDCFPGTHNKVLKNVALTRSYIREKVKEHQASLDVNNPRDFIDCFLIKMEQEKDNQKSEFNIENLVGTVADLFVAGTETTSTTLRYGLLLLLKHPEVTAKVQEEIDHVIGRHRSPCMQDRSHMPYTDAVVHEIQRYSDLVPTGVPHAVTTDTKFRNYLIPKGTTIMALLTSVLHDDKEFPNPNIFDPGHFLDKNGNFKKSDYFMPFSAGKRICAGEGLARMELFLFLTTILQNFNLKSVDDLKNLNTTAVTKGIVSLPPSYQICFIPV

ALK2(R206H) = molecular target: T3, ALK2(R206H) (Homo sapiens, UniProt Q04771, R206H); assay: ALK2(R206H) functional assays; format: biochemical; details: several functional assays; read-out: ALK2(R206H) activity potency (IC50)
T3 sequence (Q04771 21-509 R206H): T1 sequence (Q04771 21-509) with R186H

[4] = Phase 1 Part 1 (SAD) safety and tolerability; format: in vivo, human; details: healthy subjects
Protocol: The primary outcome measure of Part 1 and Part 2 will be: (1) measurement of the safety and tolerability by subject incidence of graded treatment-emergent adverse events (TEAEs), laboratory abnormalities, and changes to vital signs, ECGs, cardiac telemetry, and physical examination findings.
as §1
For each cohort of Part 1, the daily dose of study drug was administered as a single dose (1 time daily or QD). In Part 1 of the study, following a screening period to determine eligibility, subjects in each cohort entered the Phase 1 clinical research unit (CRU) on the afternoon of Day −1. Study eligibility was re-confirmed upon admission to the CRU, and subjects remained in the CRU overnight prior to dosing on Day 1. Following Day 1, subjects remained in the CRU for an additional 72 hours post-dose (i.e., discharge on Day 4) to enable collection of plasma and urine for PK samples and other study assessments. Subjects were discharged from the CRU following plasma PK sample collection on Day 4 and returned on Day 16 (+2 days) for a final follow-up visit.

CYP2C9 = CYP2C9 (Homo sapiens, UniProt P11712); assay: CYP inhibition in vitro; format: in vitro ADME
CYP2C9, sequence (P11712 whole entry): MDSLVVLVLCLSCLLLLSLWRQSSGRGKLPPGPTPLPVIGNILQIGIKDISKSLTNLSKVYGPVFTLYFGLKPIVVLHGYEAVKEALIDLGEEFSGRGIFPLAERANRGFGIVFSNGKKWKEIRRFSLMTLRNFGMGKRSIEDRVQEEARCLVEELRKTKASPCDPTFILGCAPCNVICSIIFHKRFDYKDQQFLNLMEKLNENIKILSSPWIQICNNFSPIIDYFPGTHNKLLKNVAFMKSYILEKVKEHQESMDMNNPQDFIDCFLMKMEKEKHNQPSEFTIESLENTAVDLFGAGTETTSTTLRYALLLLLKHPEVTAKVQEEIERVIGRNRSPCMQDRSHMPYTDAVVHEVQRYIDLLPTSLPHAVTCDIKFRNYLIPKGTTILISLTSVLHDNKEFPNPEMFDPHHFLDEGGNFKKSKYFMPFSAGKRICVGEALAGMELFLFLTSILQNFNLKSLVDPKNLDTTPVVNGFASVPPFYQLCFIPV

[5] = nonclinical PK / toxicokinetic assessments; format: in vivo
[6] = rat micronucleus-comet genotoxicity assays; details: in vivo

COc1cc(-n2cnc(Nc3nc(N4CCC[C@H]4C(N)=O)nc4sccc34)c2)cc(OC)c1OC.O=C(O)CC(O)(CC(=O)O)C(=O)O [Compound A]
plasma protein binding [1]: ≥ 99.9%
cumulative amount of parent compound excreted in the urine ([2]; Part 1, single doses 5 to 25 mg, all cohorts): less than 0.3 % of the administered dose
CLR,0-6 ([2]; 5 mg): 23.63 (28.3) mL/h
CLR,6-12 ([2]; 5 mg): 14.61 (92.8) mL/h
CLR,12-24 ([2]; 5 mg): 8.576 (263,3) mL/h
Cum % excreted0-72 ([2]; 5 mg): 0.2668 (43.6) %
CumAe0-72 ([2]; 5 mg): 13,340 (43.6) ng
CLR,0-6 ([2]; 10 mg): 9.499 (79.6) mL/h
CLR,6-12 ([2]; 10 mg): 6.137 (93.2) mL/h
CLR,12-24 ([2]; 10 mg): 4.759 (56,5) mL/h
Cum % excreted0-72 ([2]; 10 mg): 0.1206 (84.0) %
CumAe0-72 ([2]; 10 mg): 12,060 (84.0) ng
CLR,0-6 ([2]; 15 mg fasted): 12.84 (56.2) mL/h
CLR,6-12 ([2]; 15 mg fasted): 6.793 (98.8) mL/h
CLR,12-24 ([2]; 15 mg fasted): 8.008 (114.1) mL/h
CLR,24-48 ([2]; 15 mg fasted): 7.674 (80.2) mL/h
Cum % excreted0-72 ([2]; 15 mg fasted): 0.1409 (79.5) %
CumAe0-72 ([2]; 15 mg fasted): 21,130 (79.5) ng
CLR,0-6 ([2]; 25 mg): 15.98 (99.4) mL/h
CLR,6-12 ([2]; 25 mg): 10.56 (138.2) mL/h
CLR,12-24 ([2]; 25 mg): 9.785 (145.0) mL/h
CLR,24-48 ([2]; 25 mg): 10.44 (87.9) mL/h
Cum % excreted0-72 ([2]; 25 mg): 0.1928 (87.0) %
CumAe0-72 ([2]; 25 mg): 48,210 (87.0) ng
new HO bone formation (HO bone formation): significant reduction in new HO bone formation
plasma protein binding [3]: ≥ 99.9%
IC50 (wtALK2): < 100 nM
CYP2C8 inhibition (CYP2C8): is an inhibitor
IC50 (ALK2(R206H)): < 100 nM
safety and tolerability ([4]; Part 1, single ascending oral doses 5 mg to 25 mg): safe and generally well tolerated
grade 3 or 4 adverse events ([4]; Part 1, single oral doses 5 mg to 25 mg): no grade 3 or 4 adverse events
CYP2C9 inhibition (CYP2C9): is an inhibitor
oral bioavailability ([5]; nonclinical PK studies): orally bioavailable
accumulation with repeated dosing ([5]; repeated dosing up to 28 days, toxicokinetic assessments): do not accumulate
micronucleus-comet genotoxicity [6]: negative
